For experiment [1], the target named is T1, Cannabinoid receptor 2 (Homo sapiens, UniProt P34972). Nature of the experiment: Agonist activity at human CB2 receptor expressed in Sf9 cells coexpressing Galpha i2 assessed as Galpha GTPase activity using [gamma-33P]GTP at 100 uM by scintillation counting.
For experiment [2], the target named is T1, Cannabinoid receptor 2. Briefly: Antagonist activity at human CB2 receptor expressed in Sf9 cells coexpressing Galpha i2 assessed as Galpha GTPase activity using [gamma-33P]GTP at 100 uM by scintillation counting in presence of 30 nM CP55940. The format is functional.
For experiment [3], the target named is T1, Cannabinoid receptor 2. Briefly: Inverse agonist activity at human CB2 receptor expressed in Sf9 cells coexpressing Galpha i2 assessed as Galpha GTPase activity using [gamma-33P]GTP by scintillation counting in presence of CP55940.
Experiment [4] addresses T2, Cannabinoid receptor 1 (Homo sapiens, UniProt P21554). Briefly: Agonist activity at human CB1 receptor expressed in Sf9 cells coexpressing Galpha i2 assessed as Galpha GTPase activity using [gamma-33P]GTP at 100 uM by scintillation counting.
The target of experiment [5] is T2, Cannabinoid receptor 1. Briefly: Inverse agonist activity at human CB1 receptor expressed in Sf9 cells coexpressing Galpha i2 assessed as Galpha GTPase activity using [gamma-33P]GTP by scintillation counting in presence of CP55940.
For experiment [6], the target named is T1, Cannabinoid receptor 2. Nature of the experiment: Antagonist activity at human CB2 receptor expressed in Sf9 cells coexpressing Galpha i2 assessed as Galpha GTPase activity using [gamma-33P]GTP by scintillation counting in presence of 30 nM CP55940. The format is functional.
The target in experiment [7] is T2, Cannabinoid receptor 1. Briefly: Antagonist activity at human CB1 receptor expressed in Sf9 cells coexpressing Galpha i2 assessed as Galpha GTPase activity using [gamma-33P]GTP at 100 uM by scintillation counting in presence of 30 nM CP55940. The format is functional.
Experiment [8] deals with T1, Cannabinoid receptor 2. Briefly: Agonist activity at human CB2 receptor expressed in Sf9 cells coexpressing Galpha i2 assessed as Galpha GTPase activity using [gamma-33P]GTP by scintillation counting.
Experiment [9] addresses T2, Cannabinoid receptor 1. Briefly: Agonist activity at human CB1 receptor expressed in Sf9 cells coexpressing Galpha i2 assessed as Galpha GTPase activity using [gamma-33P]GTP by scintillation counting.
A further experiment is filed under the species Homo sapiens. Briefly: Selectivity ratio of EC50 for human CB1 receptor to EC50 for human CB2 receptor.

By Emax is commonly meant the greatest response seen or fitted, relative to the assay's reference. As usually defined, the EC50 is the concentration at which the effect is half-maximal.

T1 sequence (P34972 whole entry): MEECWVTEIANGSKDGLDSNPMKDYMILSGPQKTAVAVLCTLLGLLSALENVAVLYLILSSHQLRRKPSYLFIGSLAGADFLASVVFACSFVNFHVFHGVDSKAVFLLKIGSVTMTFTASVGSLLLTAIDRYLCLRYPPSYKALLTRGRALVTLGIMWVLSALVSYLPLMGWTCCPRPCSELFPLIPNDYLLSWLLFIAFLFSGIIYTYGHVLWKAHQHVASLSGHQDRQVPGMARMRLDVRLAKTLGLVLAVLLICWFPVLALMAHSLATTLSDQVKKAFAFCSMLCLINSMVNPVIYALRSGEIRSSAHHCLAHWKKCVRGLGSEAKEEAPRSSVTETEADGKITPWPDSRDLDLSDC
T2 sequence (P21554 whole entry): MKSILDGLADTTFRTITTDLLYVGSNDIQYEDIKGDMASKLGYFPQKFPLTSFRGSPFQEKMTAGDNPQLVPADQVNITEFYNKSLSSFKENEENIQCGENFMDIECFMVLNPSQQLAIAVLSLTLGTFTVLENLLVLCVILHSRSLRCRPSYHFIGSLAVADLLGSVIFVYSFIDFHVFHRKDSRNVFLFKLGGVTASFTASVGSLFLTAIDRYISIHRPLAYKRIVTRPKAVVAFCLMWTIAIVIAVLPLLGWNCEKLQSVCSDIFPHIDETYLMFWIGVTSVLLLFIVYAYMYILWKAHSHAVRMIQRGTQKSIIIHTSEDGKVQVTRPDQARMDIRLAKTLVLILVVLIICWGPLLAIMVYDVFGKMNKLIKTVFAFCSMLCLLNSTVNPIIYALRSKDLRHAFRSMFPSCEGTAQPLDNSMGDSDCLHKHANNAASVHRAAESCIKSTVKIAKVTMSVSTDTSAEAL

For `Cc1ccc(Cn2nc(C(=O)NC3C4(C)CCC(C4)C3(C)C)cc2-c2ccc(Cl)c(C)c2)cc1` (stereo not given), the results for the Emax on Cannabinoid receptor 2 [1] and on Cannabinoid receptor 2 [2] were -3% and 9%, respectively.
`CCOc1ccc(Cc2nc3cc(C(=O)N(CC)CC)ccc3n2CCCN(C)CCCn2c(Cc3ccc(OCC)cc3)nc3cc(C(=O)N(CC)CC)ccc32)cc1`: the Emax at Cannabinoid receptor 2 [1] is -2%; at Cannabinoid receptor 2 [2], 5%; at Cannabinoid receptor 1 [4], -43%. Also, the EC50 at Cannabinoid receptor 2 [3] was 12 µM; at Cannabinoid receptor 1 [5], 34.7 µM.
For the compound `CCOc1ccc(Cc2nc3cc(C(=O)NCCCCCCCCCCN(C)C)ccc3n2CCC(C)C)cc1`, the Emax at Cannabinoid receptor 2 [1] is 0%; at Cannabinoid receptor 2 [2], 20%; on Cannabinoid receptor 1 [4], -58%. Moreover, the EC50 on Cannabinoid receptor 2 [3] was 19.5 µM; at Cannabinoid receptor 1 [5], 24 µM.
Regarding `CCOc1ccc(Cc2nc3cc(C(=O)N(CC)CC)ccc3n2CCCN(C)C)cc1`, the Emax on Cannabinoid receptor 2 [1] is 106%; at Cannabinoid receptor 2 [2] it was 69%; at Cannabinoid receptor 1 [4], -3%; on Cannabinoid receptor 1 [7], 95%. The EC50 on Cannabinoid receptor 2 [6] is 12.6 µM.
In the case of `CCCCn1c(Cc2ccc(OCC)cc2)nc2cc(C(=O)N(CC)CC)ccc21`, the Emax is 198% at Cannabinoid receptor 2 [1], 162% at Cannabinoid receptor 2 [2] and 67% at Cannabinoid receptor 1 [4]. Further, the EC50 on Cannabinoid receptor 2 [8] was 0.174 µM; on Cannabinoid receptor 1 [9], 1.35 µM. Also, in the experiment listed under Homo sapiens, the Ratio EC50 was 8.
On to `CCOc1ccc(Cc2nc3cc(C(=O)N(CC)CC)ccc3n2CCCCCCCCCCN(C)CCCCCCCCCCn2c(Cc3ccc(OCC)cc3)nc3cc(C(=O)N(CC)CC)ccc32)cc1`, for which the figures for the Emax at Cannabinoid receptor 2 [1], on Cannabinoid receptor 2 [2] and at Cannabinoid receptor 1 [4] were -11%, -33% and -97%, respectively. Moreover, the EC50 on Cannabinoid receptor 2 [3] was 6.61 µM; on Cannabinoid receptor 1 [5], 6.31 µM.
Consider `CCOc1ccc(Cc2nc3cc(C(=O)OC)ccc3n2CCC(C)C)cc1`, for which the Emax was 37% on Cannabinoid receptor 2 [1], 121% at Cannabinoid receptor 2 [2], -3% at Cannabinoid receptor 1 [4] and 98% on Cannabinoid receptor 1 [7]. In addition, the EC50 on Cannabinoid receptor 2 [8] was 0.295 µM.
With `CCOc1ccc(Cc2nc3cc(C(=O)NCCCCCCCCCCN(C)CCCCCCCCCCNC(=O)c4ccc5c(c4)nc(Cc4ccc(OCC)cc4)n5CCC(C)C)ccc3n2CCC(C)C)cc1`, the results for the Emax at Cannabinoid receptor 2 [1], on Cannabinoid receptor 2 [2] and on Cannabinoid receptor 1 [4] were 3%, 28% and -42%, respectively. Moreover, the values for the EC50 on Cannabinoid receptor 2 [3] and at Cannabinoid receptor 1 [5] were 16.6 µM and 25.7 µM, respectively.
Turning to `CCOc1ccc(Cc2nc3cc(C(=O)NCCCN(C)CCCNC(=O)c4ccc5c(c4)nc(Cc4ccc(OCC)cc4)n5CCC(C)C)ccc3n2CCC(C)C)cc1`, the Emax at Cannabinoid receptor 2 [1] was -11%; on Cannabinoid receptor 2 [2] it was -32%; at Cannabinoid receptor 1 [4], -83%. Also, the values for the concentration for a half-maximal effect (EC50) at Cannabinoid receptor 2 [3] and at Cannabinoid receptor 1 [5] were 2.88 µM and 17.4 µM, respectively.
Take `CCOc1ccc(Cc2nc3cc(C(=O)NCCCN(C)C)ccc3n2CCC(C)C)cc1`: the Emax was 11% at Cannabinoid receptor 2 [1], 65% on Cannabinoid receptor 2 [2], -5% at Cannabinoid receptor 1 [4] and 71% at Cannabinoid receptor 1 [7].
Take `CCOc1ccc(Cc2nc3cc(C(=O)N(CC)CC)ccc3n2CCC(C)C)cc1`: the Emax came to 192% on Cannabinoid receptor 2 [1], 167% at Cannabinoid receptor 2 [2] and 48% at Cannabinoid receptor 1 [4]. Further, the EC50 at Cannabinoid receptor 1 [9] is 3.24 µM.
In the case of `COc1ccc(C(=O)c2c(C)n(CCN3CCOCC3)c3cc(I)ccc23)cc1`, the Emax at Cannabinoid receptor 2 [1] was 5%; on Cannabinoid receptor 2 [2], 15%. In addition, at Cannabinoid receptor 2 [3], the concentration giving a half-maximal response (EC50) was 0.603 µM.
For `Cc1c(C(=O)NN2CCCCC2)nn(-c2ccc(Cl)cc2Cl)c1-c1ccc(I)cc1`, the values for the Emax at Cannabinoid receptor 1 [4] and on Cannabinoid receptor 1 [7] were -84% and -8%, respectively.
Consider `CCOc1ccc(Cc2nc3cc(C(=O)N(CC)CC)ccc3n2CCCCN(C)CCCCn2c(Cc3ccc(OCC)cc3)nc3cc(C(=O)N(CC)CC)ccc32)cc1`, for which the Emax on Cannabinoid receptor 2 [1] is 5%; at Cannabinoid receptor 2 [2], 14%; at Cannabinoid receptor 1 [4], -40%. Further, at Cannabinoid receptor 2 [3], the EC50 was 57.5 µM.
For the compound `CCOc1ccc(Cc2nc3cc(C(=O)N(CC)CC)ccc3n2CCCCCCCCCCN(C)C)cc1`, the results for the Emax on Cannabinoid receptor 2 [1], at Cannabinoid receptor 2 [2] and at Cannabinoid receptor 1 [4] were 1%, 60% and -55%, respectively. For the same compound, the EC50 on Cannabinoid receptor 2 [3] is 31.6 µM; on Cannabinoid receptor 1 [5] it was 25.1 µM.

The values above are taken from ChEMBL document CHEMBL3352263, “Synthesis and biological evaluation of bivalent cannabinoid receptor ligands based on hCB₂R selective benzimidazoles reveal unexpected intrinsic properties” (Bioorg Med Chem, 2014).
